The record followed here is US5190929A, “Cyclophosphamide analogs useful as anti-tumor agents” (Research Corporation Technologies, Inc., priority 1988, dated 1993).

For data set [1], the system named is P388 murine leukemia cells, cyclophosphamide-sensitive (/0). The data set can be described thus: In vitro soft agar colony-forming cytotoxicity assay, cyclophosphamide-sensitive P388 cells. Type of data set: cell-based, mouse. The arrangement: unit not given here. To be noted: P388 /0 (sensitive); 1-hour exposure, 99% cell kill. From the text:
(§1) A soft agar colony-forming assay according to the procedure of Chu and Fischer, Biochem. Pharmacol., 17, 753-767 (1968) was used and modified where necessary. Cultured mouse L1210 and P388 sensitive cells were purchased from EG&G Mason Research Institute, Tumor Bank, Worchester, Mass. Cultured cyclophosphamide resistant L1210 and P388 cells were obtained from Dr. Robert Struck of Southern Research Institute, Birmingham, Ala. Typically, the desired cells (2-3×10^6 cells/ml) in exponential growth and suspended in 6.5 ml of Fischer's medium (Gibco Lab., Grand Island, N.Y.) were divided into six groups (1 control and 5 treated groups) containing an equal number of cells in 1 ml. These cells were then treated with varying doses of drug (solution of perhydrooxazine in media or 20% ethanol-water), diluted with media to give a total volume of 10 ml, and incubated for one hour at 37° C. The cells were washed three times with 3 ml of supplemented Fischer's medium (containing 10% horse serum) by centrifuge (800×g), removal of media by suction, and resuspension of the pellet in media (5 ml). A 1-ml portion was used to determine the cell count with a Coulter counter. From the remainder, a 5-ml suspension of cells was prepared at a density of 10^5 cells/ml, and between 10^2 and 10^5 cells were placed on soft agar and incubated at 37° C. Colonies were counted after 10 days. The log of the surviving fraction was plotted vs. drug concentration and from this plot the LC99 was obtained. (By definition, the LC99 value represents the concentration of drug necessary to effect a 99% cell kill.)

Data set [2] has as its system L1210 murine leukemia cells, cyclophosphamide-resistant (/CP). Put plainly: In vitro soft agar colony-forming cytotoxicity assay, cyclophosphamide-resistant L1210 cells. Type of data set: cell-based, mouse. The arrangement: LC99: unit not given here. To be noted: for LC99: L1210 /CP (cyclophosphamide-resistant), 1-hour exposure, 99% cell kill; for RF, resistance factor = ratio of LC99 in resistant/sensitive cells: L1210, 60 min.
From the text: as §1

Data set [3] relates to L1210 murine leukemia cells, cyclophosphamide-sensitive (/0). The data set can be described thus: In vitro soft agar colony-forming cytotoxicity assay, cyclophosphamide-sensitive L1210 cells. Set-up: unit not given here. As to conditions: L1210 /0 (sensitive); 1-hour exposure, 99% cell kill. Type of data set: cell-based, mouse.
From the text: as §1

Another data set concerns L1210 tumor cells. Put plainly: In vivo antitumor activity, survival of L1210 bearing mice. The arrangement: species or system mouse (male B6 D2 F1). As to conditions: for Long Term Survivors: experiment terminated on day 30; for response vs control in vivo at 17 µmol/kg / response vs control in vivo at 34 µmol/kg / response vs control in vivo at 51 µmol/kg / response vs control in vivo at 68 µmol/kg: Mus musculus, L1210, ip, read-out: Survival of L1210 bearing mice - % T/C × 100; for response vs control in vivo at 17 µmol/kg: 17 umol/kg; for toxicity compared with the reference activated cyclophosphamide: higher doses. On the procedure:
(§2) Typically 4 groups of 10 male B6 D2 F1 mice (Jackson Breeding Lab., Bar Harbor Me) were injected i.p. with 1×10^5 L1210 tumor cells. Twenty four hours after injection three groups were treated (i.p. injection) with varying doses of drug, and the fourth group received the vehicle alone. The mice were observed daily and death dates were recorded. The experiment was terminated on day 30 and median survival time (days) and % T/C (ratio of median survival time of treated group divided by the […] survival time of the control group) was calculated. The drug was delivered using either an isotonic saline solution or a carboxymethyl cellulose suspension depending on the solubility of the drug.

Data set [4] deals with P388 murine leukemia cells, cyclophosphamide-resistant (/CP). Put plainly: In vitro soft agar colony-forming cytotoxicity assay, cyclophosphamide-resistant P388 cells. The arrangement: LC99: unit not given here. As to conditions: for LC99: P388 /CP (cyclophosphamide-resistant), 1-hour exposure, 99% cell kill; for RF, resistance factor = ratio of LC99 in resistant/sensitive cells: P388, 60 min. The data set is classed as cell-based, mouse.
From the text: as §1

The next data set relates to CP-resistant L1210 cells. Put plainly: In vivo antitumor activity, survival of mice bearing CP-resistant L1210 cells. Set-up: species or system mouse (male B6 D2 F1). As to conditions: for Survival of L1210 bearing mice - % T/C × 100: CP-resistant L1210, i.p. On the procedure: as §2

In the case of `O=P1(N(CCCl)CCCl)NC(OO)CC(c2ccncc2)O1` (stereo not drawn) [Compound 9, 4-Hydroperoxy-6-(4-pyridyl)cyclophosphamide], the LC99 in data set [1] was found to be 44; in data set [2] it was 57; in data set [3] it was 53; in data set [4] it was 27. Moreover, the “RF, resistance factor = ratio of LC99 in resistant/sensitive cells” value is on record as 1.1 in data set [2] and 0.6 in data set [4]. The “Long Term Survivors” value in the data set with L1210 tumor cells (68 umol/kg, i.p.) is reported as 1/6. For the same compound, the response vs control in vivo at 17 µmol/kg with L1210 tumor cells (i.p.) is 131%. In addition, in the data set on L1210 tumor cells (34 umol/kg, i.p.), the response vs control in vivo at 34 µmol/kg was 150%. The response vs control in vivo at 51 µmol/kg with L1210 tumor cells (51 umol/kg, i.p.) amounted to 164%. Further, the response vs control in vivo at 68 µmol/kg in the data set with L1210 tumor cells (68 umol/kg, i.p.) came to 193%. The “antitumor activity in L1210 leukemic mice” value (from here on “antitumor activity”) with L1210 tumor cells (all doses tested) is given as “highly active at all doses tested”. The “toxicity compared with the reference activated cyclophosphamide” value in the data set on L1210 tumor cells is “less toxic at higher doses than the reference activated cyclophosphamide”. In addition, the “Survival of L1210 bearing mice - % T/C × 100” value with CP-resistant L1210 cells (17 umol/kg) stood at 119%; in the data set with CP-resistant L1210 cells (34 umol/kg), 131%; in the data set on CP-resistant L1210 cells (51 umol/kg), 138%; in the data set with CP-resistant L1210 cells (68 umol/kg), 150%. Besides, in the data set with CP-resistant L1210 cells (cyclophosphamide resistant L1210 leukemia), the “survival / lifespan of mice bearing cyclophosphamide resistant L1210 leukemia” value is “prolongs the survival of these mice bearing the drug-resistant leukemia at all doses tested”.

On to `O=P1(N(CCCl)CCCl)NC(OO)CC(c2cccnc2)O1` (stereo not drawn) [Compound 8, 4-hydroxyperoxy-6-(3-pyridyl)cyclophosphamide], for which the LC99 was 33 in data set [1], 56 in data set [2], 36 in data set [3] and 24 in data set [4]. The “RF, resistance factor = ratio of LC99 in resistant/sensitive cells” value amounted to 1.6 in data set [2] and 0.7 in data set [4]. The response vs control in vivo at 34 µmol/kg in the data set on L1210 tumor cells (34 umol/kg, i.p.) worked out at 131%. Besides, the response vs control in vivo at 51 µmol/kg with L1210 tumor cells (51 umol/kg, i.p.) is 69%. Besides, the response vs control in vivo at 68 µmol/kg in the data set with L1210 tumor cells (68 umol/kg, i.p.) worked out at 63%.

For the compound `O=[N+]([O-])c1ccc(C2CC(OO)NP(=O)(N(CCCl)CCCl)O2)cc1` (stereo not drawn) [Compound 5, 4-hydroperoxy-6-p-nitrophenylcyclophosphamide], the LC99 in data set [1] turned out to be 7; in data set [2] it was 8; in data set [3] it was 8; in data set [4], 3. In addition, the “RF, resistance factor = ratio of LC99 in resistant/sensitive cells” value in data set [2] was 1.0; in data set [4], 0.4. Further, the “Long Term Survivors” value is listed as 1/6 in the data set with L1210 tumor cells (34 umol/kg, i.p.); 2/6 with L1210 tumor cells (51 umol/kg, i.p.); 4/6 in the data set with L1210 tumor cells (68 umol/kg, i.p.). Besides, the response vs control in vivo at 34 µmol/kg in the data set with L1210 tumor cells (34 umol/kg, i.p.) was determined as 163%. Also, the response vs control in vivo at 51 µmol/kg in the data set with L1210 tumor cells (51 umol/kg, i.p.) worked out at 194%. For the same compound, in the data set with L1210 tumor cells (68 umol/kg, i.p.), the response vs control in vivo at 68 µmol/kg was 225%. For the same compound, the “antitumor activity” value in the data set on L1210 tumor cells (all doses tested) is recorded as “highly active at all doses tested”. For the same compound, in the data set on L1210 tumor cells, the “toxicity compared with the reference activated cyclophosphamide” value is reported as “less toxic at higher doses than the reference activated cyclophosphamide”.

With `Cc1ccc(C2CC(OO)NP(=O)(N(CCCl)CCCl)O2)cc1` (stereo not drawn) [Compound 6, 4-Hydroperoxy-6-p-tolylcyclophosphamide], the LC99 in data set [1] is recorded as 3; in data set [2], 6; in data set [3], 5; in data set [4], 3. Further, the “RF, resistance factor = ratio of LC99 in resistant/sensitive cells” value is 1.2 in data set [2] and 1.0 in data set [4]. For the same compound, the “Long Term Survivors” value is on record as 1/6 in the data set with L1210 tumor cells (51 umol/kg, i.p.) and 1/6 in the data set on L1210 tumor cells (68 umol/kg, i.p.). In the data set with L1210 tumor cells (34 umol/kg, i.p.), the response vs control in vivo at 34 µmol/kg worked out at 150%. In the data set with L1210 tumor cells (51 umol/kg, i.p.), the response vs control in vivo at 51 µmol/kg was 175%. Further, the response vs control in vivo at 68 µmol/kg in the data set on L1210 tumor cells (68 umol/kg, i.p.) turned out to be 180%. The “antitumor activity” value with L1210 tumor cells (all doses tested) is “highly active at all doses tested”. Further, in the data set on L1210 tumor cells, the “toxicity compared with the reference activated cyclophosphamide” value is “less toxic at higher doses than the reference activated cyclophosphamide”.

With `O=P1(N(CCCl)CCCl)NC(OO)CC(c2ccccc2)O1` (stereo not drawn) [Compound 4, 4-hydroperoxy-6-phenylcyclophosphamide], the LC99 in data set [1] was found to be 11; in data set [2] it was 15; in data set [3], 17; in data set [4], 7. The “RF, resistance factor = ratio of LC99 in resistant/sensitive cells” value in data set [2] came to 0.9; in data set [4] it was 0.6. Further, in the data set on L1210 tumor cells (51 umol/kg, i.p.), the “Survival of L1210 bearing mice - % T/C × 100” value was “toxic”. Besides, the response vs control in vivo at 17 µmol/kg in the data set with L1210 tumor cells (i.p.) was 117%. Besides, in the data set with L1210 tumor cells (34 umol/kg, i.p.), the response vs control in vivo at 34 µmol/kg worked out at 144%.

On to `CC1CC(OO)NP(=O)(N(CCCl)CCCl)O1` (stereo not drawn) [Compound 1, 4-hydroperoxy-6-methylcyclophosphamide], for which the LC99 in data set [1] is reported as 26; in data set [2] it was 177; in data set [3], 32; in data set [4], 69. For the same compound, the “RF, resistance factor = ratio of LC99 in resistant/sensitive cells” value in data set [2] is recorded as 5.5; in data set [4], 2.7. In addition, the “Long Term Survivors” value in the data set on L1210 tumor cells (34 umol/kg, i.p.) is reported as 2/6. For the same compound, in the data set with L1210 tumor cells (34 umol/kg, i.p.), the response vs control in vivo at 34 µmol/kg was 138%. For the same compound, the response vs control in vivo at 51 µmol/kg in the data set on L1210 tumor cells (51 umol/kg, i.p.) was 56%. For the same compound, the response vs control in vivo at 68 µmol/kg in the data set with L1210 tumor cells (68 umol/kg, i.p.) was determined as 50%.

For `O=P1(N(CCCl)CCCl)NC(OO)CC(c2ccc(F)cc2)O1` (stereo not drawn) [Compound 7, 4-hydroperoxy-6-p-fluorophenylcyclophosphamide], the LC99 in data set [1] turned out to be 6; in data set [2] it was 8; in data set [3] it was 7; in data set [4] it was 3. Besides, the results for the “RF, resistance factor = ratio of LC99 in resistant/sensitive cells” value in data set [2] and in data set [4] were 1.1 and 0.5, respectively. Besides, the “Long Term Survivors” value with L1210 tumor cells (51 umol/kg, i.p.) is 1/6; in the data set on L1210 tumor cells (68 umol/kg, i.p.) it was 1/6. Moreover, the response vs control in vivo at 34 µmol/kg with L1210 tumor cells (34 umol/kg, i.p.) worked out at 163%. Further, the response vs control in vivo at 51 µmol/kg with L1210 tumor cells (51 umol/kg, i.p.) was 188%. In the data set with L1210 tumor cells (68 umol/kg, i.p.), the response vs control in vivo at 68 µmol/kg is 63%. Further, the “antitumor activity” value in the data set on L1210 tumor cells (lower doses tested) is “highly active at the lower doses tested”.

Regarding `CC(C)C1CC(OO)NP(=O)(N(CCCl)CCCl)O1` (stereo not drawn) [Compound 2, 4-hydroperoxy-6-isopropylcyclophosphamide], the LC99 in data set [1] was 86; in data set [2], 115; in data set [3] it was 105; in data set [4], 61. Moreover, the “RF, resistance factor = ratio of LC99 in resistant/sensitive cells” value in data set [2] turned out to be 1.1; in data set [4] it was 0.7.

Take `O=P1(N(CCCl)CCCl)NC(OO)CC(CCc2ccccc2)O1` (stereo not drawn) [Compound 3, 4-hydroperoxy-6-phenethylcyclophosphamide]: the LC99 in data set [1] is listed as 9; in data set [2] it was 9; in data set [3], 11; in data set [4], 5. Besides, the “RF, resistance factor = ratio of LC99 in resistant/sensitive cells” value came out at 1.1 in data set [2] and 0.6 in data set [4]. In the data set with L1210 tumor cells (34 umol/kg, i.p.), the response vs control in vivo at 34 µmol/kg worked out at 106%. The response vs control in vivo at 51 µmol/kg in the data set with L1210 tumor cells (51 umol/kg, i.p.) was determined as 25%.
